Experimental data as given in PMC8328489, “Automated Synthesis and Initial Evaluation of (4′-Amino-5′,8′-difluoro-1′H-spiro[piperidine-4,2′-quinazolin]-1-yl)(4-[^18F]fluorophenyl)methanone for PET/MR Imaging of Inducible Nitric Oxide Synthase” (Molecular Imaging, 2021).
Values joined by “and” are separate entries in the source; they are usually repeats but may differ in a detail not shown here. Equal values may be shown once.

What was measured:
[1] = Radiolabeled metabolites in blood plasma (radio-HPLC); format: in vivo, Sprague-Dawley rats; details: rat, i.v.
Protocol: Adult Sprague-Dawley rats (n = 3) were anesthetized with 2% isoflurane (in oxygen) and injected with 194.87 MBq ± 22.61 MBq of [^18F]FBAT in the tail vein. Plasma was extracted from heparinized blood samples (0.25 mL) with 3x volumes of acetonitrile and analyzed with radio-HPLC; mobile phase: 40% MeCN/0.10% TEA in water at 1 mL/min. This method affords retention time of [^18F]FBAT which was 18.1–18.9 min. Fractions of [^18F]FBAT and metabolites were calculated for each sample based on the area under each peak. The radioactivity concentration in the whole blood and plasma was assayed using a gamma counter (Cobra, Packard, CT).

[2] = target: T1, iNOS (Mus musculus, UniProt P29477); assay: In vivo brain PET/MR imaging of LPS-induced iNOS expression (SUV, SUR, AUC) incl. aminoguanidine blocking; design: species or system C57BL/6 mice
T1 construct: tracer to detect iNOS expression in mice injected with lipopolysaccharide (LPS) to induce brain inflammation; from tissue; host or cells: brain of living C57BL/6 mice (LPS-induced); fixed brain sections for IHC
Protocol: For the imaging experiments, twelve C57BL/6 mice were injected i.p. with 0.9% NaCl, eighteen mice were injected i.p. with 0.1 mL of LPS in saline (5 mg/kg), and six mice were injected i.p. with aminoguanidine (Sigma-Aldrich) 30 min prior to 5 mg/kg LPS. In vivo imaging was performed 3 h or 24 h after injection of LPS; then, the mice were immediately humanely euthanized and the brains were removed for immunostaining.
Mice (n = 30) were anesthetized with 2% isoflurane (in oxygen) and injected with [^18F]FBAT (11.1 MBq; 0.3 mCi) via the tail vein. Dynamic PET images were obtained in fully three-dimensional list mode for 30 min using a small animal SuperArgus 2r PET system (SEDECAL, Madrid, Spain) or 7T PETMR Inline (Bruker, Rheinstetten, Germany; energy window, 350-650 keV; timing window, 6 ns). Images were acquired every 10 s for 12 images, 60 s for three images, 300 s for three images, or 600 s for […]. The anatomical structure of the brain was imaged using T2 MRI. The MRI sequences included 0.5 mm thick T2 Turbo RARE high-resolution images (TR = 3000 ms, TE, 46 ms, matrix, 512 × 256, average, 40, slice number, 30, field of view, 20 × 10 mm).
After determining the optimal imaging time point for [^18F]FBAT, we performed a blocking study using a selective iNOS inhibitor to assess the specificity of the tracer for iNOS. Separate 7T PET/MR studies with [^18F]FBAT were performed for mice (n = 6) administered a bolus of aminoguanidine (50 mg/kg i.p.) 30 min prior to administration of [^18F]FBAT. The time course of [^18F]FBAT radioactivity in the brain after administration of the iNOS inhibitor was assessed and compared to that of the mice in the LPS 3 h group.
Images were reconstructed by the Fourier rebinning algorithm and two-dimensional filtered back projection using a ramp filter with a cutoff at Nyquist. The regional radioactivity concentration (kBq/cc) of [^18F]FBAT was estimated from the mean pixel values within the region of interest (ROI) corresponding to MR images of various organs and regions of the brain. ROI for carotid artery, heart muscle, lung, liver, spleen, and kidney were defined and time activity curves (TACs) generated. TACs for whole brain, cortex, cerebellum, and brainstem were also determined as described above.
The concentration of radioactivity (kBq/cc, μCi/cc) was converted to standardized uptake value (SUV), and the mean and standard deviation (SD) of radiotracer accumulation values were calculated for different organs and regions of the brain. Data were analyzed with PMOD 4.0 software (PMOD Technologies Ltd., Zurich, Switzerland).

[3] = LPS 5 mg/kg, 3 h, 30 min post i.v. tracer
[4] = LPS 5 mg/kg, 24 h, 30 min post i.v. tracer
[5] = LPS 3 h + aminoguanidine 50 mg/kg pretreatment
[6] = control mice, 30 min post i.v. tracer

For NC1=NC2(CCN(C(=O)c3ccc([18F])cc3)CC2)Nc2c(F)ccc(F)c21 [[^18F]FBAT, (4′-amino-5′,8′-difluoro-1′H-spiro[piperidine-4,2′-quinazolin]-1-yl)(4-[^18F]fluorophenyl)methanone], the “metabolites fraction in plasma” value ([1]; 120 min after injection) was about 94.02%, the “parent compound fraction in plasma” value ([1]; first 5 minutes) was 77.98% and the “SUV, brainstem” value [2, 3] was 0.98 ± 0.09 SUV and 0.976 ± 0.244^∗ SUV. For the same compound, the “SUV, cerebellum” value [2, 3] was 0.60 ± 0.03 SUV and 0.600 ± 0.066^∗ SUV, the “SUV, cortex” value [2, 3] was 0.90 ± 0.07 SUV and 0.904 ± 0.251^∗ SUV and the “SUV, whole brain” value [2, 3] was 1.43 ± 0.11 SUV and 1.428 ± 0.410^∗∗∗ SUV. For the same compound, the “SUV, brainstem” value [2, 4] was 0.67 ± 0.07 SUV and 0.671 ± 0.148 SUV, the “SUV, cerebellum” value [2, 4] was 0.54 ± 0.02 SUV and 0.542 ± 0.052 SUV and the “SUV, cortex” value [2, 4] was 0.62 ± 0.02 SUV and 0.620 ± 0.041 SUV. The “SUV, whole brain” value [2, 4] was 0.90 ± 0.13 SUV and 0.900 ± 0.270 SUV, the “SUV, brainstem” value [2, 5] was 0.35 ± 0.10 SUV and 0.350 ± 0.055 SUV and the “SUV, cerebellum” value [2, 5] was 0.31 ± 0.09 SUV and 0.310 ± 0.037 SUV. The “SUV, cortex” value [2, 5] was 0.32 ± 0.09 SUV and 0.320 ± 0.063 SUV, the “SUV, whole brain” value [2, 5] was 0.31 ± 0.08 SUV and 0.312 ± 0.055 SUV and the “SUR (SUVLPS to SUVcon), brainstem” value ([2]; LPS 24 h) was 1.273 ± 0.163. For the same compound, the “SUR (SUVLPS to SUVcon), cerebellum” value ([2]; LPS 24 h) was 1.233 ± 0.112, the “SUR (SUVLPS to SUVcon), cortex” value ([2]; LPS 24 h) was 0.970 ± 0.303 and the “SUR (SUVLPS to SUVcon), whole brain” value ([2]; LPS 24 h) was 1.351 ± 0.451. For the same compound, the “SUR (SUV ratio to control), brainstem” value ([2]; control mice) was 1.000, the “SUR (SUV ratio to control), cerebellum” value ([2]; control mice) was 1.000 and the “SUR (SUV ratio to control), cortex” value ([2]; control mice) was 1.000. The “SUR (SUV ratio to control), whole brain” value ([2]; control mice) was 1.000, the “SUV, brainstem” value [2, 6] was 0.540 ± 0.153 SUV and the “SUV, cerebellum” value [2, 6] was 0.448 ± 0.115 SUV. For the same compound, the “SUV, cortex” value [2, 6] was 0.604 ± 0.150 SUV, the “SUV, whole brain” value [2, 6] was 0.709 ± 0.200 SUV and the “AUC0-30min, 3 h LPS group vs control group” value ([2]; whole brain, average) was 1.9 ± 0.21 fold.
